According to patent EP3108900B1, “PROTOTYPE SYSTEMS OF THERANOSTIC BIOMARKERS FOR IN VIVO MOLECULAR MANAGEMENT OF CANCER” (EPOS-Iasis Research and Development, Ltd, priority 2015, dated 2016):
Where “and” joins values, the source holds several entries; their conditions need not be identical. Equal values may be shown once. Read-outs that look alike come from different tables or passages of the source.

Columns and labels:
[1] = tested on: colon cancer cells (SW480); assay: antiproliferative effect / cell viability; type: cell-based; settings: control = no drug
Protocol: The antiproliferative effect of the following compounds A1F, B1F, C1F and D1F were tested on colon cancer cells (SW480). [drawing 94] [drawing 95]

LoVo cells = assay: MTT colorimetric assay (antiproliferative efficacy); type: cell-based
SW620 cells = assay: label-free temporal and quantitative pharmacoproteomics; type: cell-based
Protocol: The following experiment was performed to uncover new biomarkers of therapeutic response to the anticancer efficacy of the natural product based theranostic systems of the present invention.
In this experiment, SW620 cells were seeded in T75 flasks in DMEM, 10% FBS and 1% Penicillin/Streptomycin (all from Gibco). The cells were allowed to attach overnight. The following day the medium was removed and fresh medium containing 0.04 mM of either γT (γ-tocotrienol) or DCE-γT (diluted in absolute ethanol; final concentration of ethanol in the medium was 0.1% v/v). For control untreated cells, equal amount of fresh medium (containing ethanol at 0.1% v/v final concentration) was added.
SW620 cells were harvested after 24, 36 and 48 hrs of incubation with γT or DCE-γT. Briefly, the medium was removed and the cells were rinsed three times with PBS (without Ca, Mg) (Gibco). Fresh PBS was added and the cells were scraped off the flasks and collected in tubes. Collected cells were centrifuged at 1000rpm (165g) for 3min and the supernatant was removed. The cell pellet was re-suspended in PBS and the centrifugation step was repeated. The supernatant was removed and the cells in minimal residual PBS were snap-freezed in liquid nitrogen. Once frozen the cells were stored in -80°C until the proteomics analysis.
In terms of data analysis, a threshold of relative protein abundance equal or greater than 1.5-fold increase or decrease was set.

[2] = molecular target: T1, EGFR membrane tyrosine kinase receptor (Homo sapiens, UniProt P00533); assay: FRET assay in cells transfected with EGFR-Luc plasmid; type: cell-based; settings: EGFR negative colon cancer cells transiently transfected with EGFR-Luc plasmid
T1 construct: expressed in transfected cells
Protocol: The fluorescent esters of the natural products disclosed herein can also be used as molecular probes for deciphering the interaction between the natural product and potential biomarkers in cancer cells. EGFR negative colon cancer cells were transiently transfected with a rationally designed EGFR-Luc plasmid and incubated with the DCE-γ-Tocotrienol ester. Bioluminescence of the Luciferase (donor) was assessed against the fluorescence signal of either the DCE-γ-Tocotrienol ester or the hydrolysis product (acceptor).

EGFR-Luc and Grb2-GFP = EGFR-Luc and Grb2-GFP (Homo sapiens, UniProt P00533); assay: BRET assay of EGFR-Luc and Grb2-GFP interaction; type: cell-based; settings: interaction between EGFR-Luc and Grb2-GFP
[3] = in vivo biodistribution, quantitative fluorescence imaging
[4] = SW620 cells, 0.04 mM, versus control untreated cells

C=CC(=O)Nc1cc2c(Nc3ccc(Br)cc3)ncnc2cc1NC(=O)CCl [A1F]
viability of the cells with respect to the control [1]: reduce the viability of the cells

C=CC(=O)Nc1cc2c(Nc3ccc(C(C)C)cc3)ncnc2cc1NC(=O)CCl [B1F]
viability of the cells with respect to the control [1]: reduce the viability of the cells

C=CC(=O)Nc1cc2c(NCc3cccc4ccccc34)ncnc2cc1NC(=O)CCl [C1F]
viability of the cells with respect to the control [1]: reduce the viability of the cells

C=CC(=O)Nc1cc2c(Nc3ccc(C(C)(C)C)cc3)ncnc2cc1NC(=O)CCl [D1F]
viability of the cells with respect to the control [1]: reduce the viability of the cells

CC1(C)C(/C=C/C=C/C=C/C=C2\N(CCCCS(=O)(=O)O)c3ccc4ccccc4c3C2(C)C)=[N+](CCCCS(=O)(=O)[O-])c2ccc3ccccc3c21 [free cyanine dye, indocyanine green]
antiproliferative efficacy (LoVo cells): did not exhibit any antiproliferative effects

CC(C)=CCC/C(C)=C/CC/C(C)=C/CC[C@]1(C)CCc2cc(O)c(C)c(C)c2O1 [γT, γ-tocotrienol, reference compound]
decrease of protein level of histone H2B types (SW620 cells; [4]): 1.8 fold | decrease of protein level of histone H3 types (SW620 cells; [4]): at least 3.7 fold | decrease of protein level of hnRNPs (SW620 cells; [4]): at least 2 fold | decrease of protein level of snRNPs / certain snRNP components (SW620 cells; [4]): 1.8 fold | increase of histone H2A.Z (SW620 cells; [4]): 24 fold | increase of the level of RNA helicases (SW620 cells; [4]): ≥ 1.9 fold | increase of the level of certain snRNP components (SW620 cells; [4]): ≥ 3 fold | increase of the level of transcription regulators/co-factors (SW620 cells; [4]): ≥ 2 fold

dicarboxylic ester of γ-Tocotrienol [DCE-γT]
BRET signal [2]: amplified FRET signal | activation within the EGFR axis (BRET signals) (EGFR-Luc and Grb2-GFP): neither the ester nor the hydrolysis products elicit any unwanted activation | decrease of DNA repair factors (SW620 cells): 2 fold | decrease of protein level of histone H3 types (SW620 cells): at least 6 fold | decrease of protein level of snRNPs / certain snRNP components (SW620 cells): 2 fold | increase of histone H2A.Z (SW620 cells): 23 fold | increase of histone H3 forms (SW620 cells): ≥ 1.8 fold | number of proteins whose expression was elicited (SW620 cells): 37 proteins and 30 proteins and 29 proteins | protein modulation (SW620 cells): statistically significant modulation of key proteins | time of peak of fluorescent signal ([3]; in vivo biodistribution, uptake as a function of time): 30 min | brain uptake / blood brain barrier passage ([3]; mouse brain parenchyma cells, data not shown): able to pass the blood brain barrier
